Results reported in patent publication US20220089568A1 (Janssen Biotech, Inc., priority 2019, published 2022).
pEC50: −log10 of the molar value.

How the values were obtained:
human DHODH = molecular target: T1, human DHODH (Homo sapiens, UniProt Q02127); test: DHODH Enzymatic Assay; format: biochemical; conditions: purified human DHODH; DCIP absorbance, end-point mode
T1 construct: purchased Proteros PR-0044
How it was run: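 Purified human DHODH activity read as absorbance of DCIP, the terminal electron acceptor, in […] pH 7.5, 150 mM NaCl, 0.5 mM EDTA, 0.1% Triton X-100. Reaction started with a substrate mix of 20 mM DHO, 5 mM CoQ6 and 1 mM DCIP in assay buffer.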

MOLM-13 cells = test: MOLM-13 Cellular Assay; format: cell-based; conditions: Homo sapiens, 72 hours exposure, cell viability by CellTiter-Glo
Description: The day prior to assay set-up, cells were pelleted, resuspended in fresh media, counted, and cells were plated at 0.4×10^6 cell/mL in a T150 flask. […] Cells were exposed to different concentrations of test compounds at 37° C., 5% CO2 for 72 hours immediately after seeding.

T1 sequence (Q02127 whole entry): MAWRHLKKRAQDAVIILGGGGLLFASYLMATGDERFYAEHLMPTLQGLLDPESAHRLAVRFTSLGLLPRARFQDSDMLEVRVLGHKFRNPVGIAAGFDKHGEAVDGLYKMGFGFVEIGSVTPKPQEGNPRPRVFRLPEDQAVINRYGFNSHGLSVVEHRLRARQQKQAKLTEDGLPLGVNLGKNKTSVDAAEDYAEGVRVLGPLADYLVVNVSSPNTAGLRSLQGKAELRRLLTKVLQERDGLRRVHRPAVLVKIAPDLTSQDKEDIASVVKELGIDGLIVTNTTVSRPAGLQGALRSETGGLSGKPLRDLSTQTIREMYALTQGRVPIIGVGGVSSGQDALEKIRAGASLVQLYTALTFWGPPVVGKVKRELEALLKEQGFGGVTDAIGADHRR

Row | pEC50 (human DHODH) | pEC50 (MOLM-13 cells) | SMILES
1 | 8.37 | 9.03 | CCn1c(C(C)O)nn(-c2nc(O[C@@H](C)C(F)(F)F)c(C(=O)Nc3c(C)n[nH]c3C(F)(F)F)cc2F)c1=O (mixture of isomers) [Example 127, (Racemic)-6-[4-Ethyl-3-(1-hydroxyethyl)-5-oxo-1,2,4-triazol-1-yl]-5-fluoro-N-[3-methyl-5-(trifluoromethyl)-1H-pyrazol-4-yl]-2-(2,2,2-trifluoro-1-methyl-ethoxy)pyridine-3-carboxamide]
2 | 8.43 | 8.95 | CCn1c(CO)nn(-c2nc(O[C@@H](C)C(F)(F)F)c(C(=O)Nc3c(F)ccnc3OC)cc2F)c1=O [Example 125, 6-[4-Ethyl-3-(hydroxymethyl)-5-oxo-1,2,4-triazol-1-yl]-5-fluoro-N-(4-fluoro-2-methoxy-3-pyridyl)-2-[(1S)-2,2,2-trifluoro-1-methyl-ethoxy]pyridine-3-carboxamide]
3 | 7.90 | 7.49 | CCn1c(CO)nn(-c2nc(O[C@@H](C)C(F)(F)F)c(C(=O)Nc3c(C)noc3C)cc2F)c1=O [Example 46, (S)-N-(3,5-Dimethylisoxazol-4-yl)-6-(4-ethyl-3-(hydroxymethyl)-5-oxo-4,5-dihydro-1H-1,2,4-triazol-1-yl)-5-fluoro-2-((1,1,1-trifluoropropan-2-yl)oxy)nicotinamide]
4 | 7.64 | 8.61 | CCn1c(CO)nn(-c2nc(O[C@@H](C)C(F)(F)F)c(C(=O)Nc3c(OC)n[nH]c3C)cc2F)c1=O [Example 121, 6-[4-Ethyl-3-(hydroxymethyl)-5-oxo-1,2,4-triazol-1-yl]-5-fluoro-N-(3-methoxy-5-methyl-1H-pyrazol-4-yl)-2-[(1S)-2,2,2-trifluoro-1-methyl-ethoxy]pyridine-3-carboxamide]
5 | 8.00 | 7.70 | CCn1c(CO)nn(-c2nc(O[C@@H](C)C(F)(F)F)c(C(=O)Nc3cc(OC)ncc3C)cc2F)c1=O [Example 66, (S)-6-(4-ethyl-3-(hydroxymethyl)-5-oxo-4,5-dihydro-1H-1,2,4-triazol-1-yl)-5-fluoro-N-(2-methoxy-5-methylpyridin-4-yl)-2-((1,1,1-trifluoropropan-2-yl)oxy)nicotinamide]
6 | 5.62 | < 7.00 | CCn1c(CO)nn(-c2nc(O[C@@H](C)C(F)(F)F)c(C(=O)Nc3c(C)ncnc3Cl)cc2F)c1=O [Example 38, (S)-N-(4-Chloro-6-methylpyrimidin-5-yl)-6-(4-ethyl-3-(hydroxymethyl)-5-oxo-4,5-dihydro-1H-1,2,4-triazol-1-yl)-5-fluoro-2-((1,1,1-trifluoropropan-2-yl)oxy)nicotinamide]
7 | 6.85 | < 7.00 | CCn1c(CO)nn(-c2nc(O[C@@H](C)C(F)(F)F)c(C(=O)Nc3conc3C)cc2F)c1=O [Example 45, (S)-6-(4-Ethyl-3-(hydroxymethyl)-5-oxo-4,5-dihydro-1H-1,2,4-triazol-1-yl)-5-fluoro-N-(3-methylisoxazol-4-yl)-2-((1,1,1-trifluoropropan-2-yl)oxy)nicotinamide]
8 | 8.77 | 7.89 | CCn1c(CO)nn(-c2nc(O[C@@H](C)C(F)(F)F)c(C(=O)Nc3cc(C#N)ccc3Cl)cc2F)c1=O [Example 74, (S)-N-(2-Chloro-5-cyanophenyl)-6-(4-ethyl-3-(hydroxymethyl)-5-oxo-4,5-dihydro-1H-1,2,4-triazol-1-yl)-5-fluoro-2-((1,1,1-trifluoropropan-2-yl)oxy)nicotinamide]
9 | 9.38 | 9.43 | CCn1c(CO)nn(-c2nc(O[C@@H](C)C(F)(F)F)c(C(=O)Nc3c(C)cc(C)nc3OC)cc2F)c1=O [Example 114, 6-[4-Ethyl-3-(hydroxymethyl)-5-oxo-1,2,4-triazol-1-yl]-5-fluoro-N-(2-methoxy-4,6-dimethyl-3-pyridyl)-2-[(1S)-2,2,2-trifluoro-1-methyl-ethoxy]pyridine-3-carboxamide]
10 | > 8.77 | 9.70 | CCn1c(COC)nn(-c2nc(O[C@@H](C)C(F)(F)F)c(C(=O)Nc3c(F)cccc3Cl)cc2F)c1=O [Example 14, (S)-N-(2-Chloro-6-fluorophenyl)-6-(4-ethyl-3-(methoxymethyl)-5-oxo-4,5-dihydro-1H-1,2,4-triazol-1-yl)-5-fluoro-2-((1,1,1-trifluoropropan-2-yl)oxy)nicotinamide]
11 | 9.16 | 9.14 | CCn1c(CO)nn(-c2nc(O[C@@H](C)C(F)(F)F)c(C(=O)Nc3c(Cl)ccc(C)c3C)cc2F)c1=O [Example 83, N-(6-Chloro-2,3-dimethyl-phenyl)-6-[4-ethyl-3-(hydroxymethyl)-5-oxo-1,2,4-triazol-1-yl]-5-fluoro-2-[(1S)-2,2,2-trifluoro-1-methyl-ethoxy]pyridine-3-carboxamide]
12 | 7.50 | 7.73 | CCn1c(CO)nn(-c2nc(OC3CCOC3)c(C(=O)Nc3c(F)cccc3Cl)cc2F)c1=O (racemic) [Example 9, Racemic-N-(2-Chloro-6-fluorophenyl)-6-(4-ethyl-3-(hydroxymethyl)-5-oxo-4,5-dihydro-1H-1,2,4-triazol-1-yl)-5-fluoro-2-((tetrahydrofuran-3-yl)oxy)nicotinamide]
13 | 9.07 | 9.77 | CCn1c(CF)nn(-c2nc(OC(C)C)c(C(=O)Nc3c(C)n[nH]c3Cl)cc2F)c1=O [Example 108, N-(5-Chloro-3-methyl-1H-pyrazol-4-yl)-6-[4-ethyl-3-(fluoromethyl)-5-oxo-1,2,4-triazol-1-yl]-5-fluoro-2-isopropoxy-pyridine-3-carboxamide]
14 | 8.65 | 8.83 | CCn1c(CO)nn(-c2nc(O[C@@H](C)C(F)(F)F)c(C(=O)Nc3c(OC)cccc3OC)cc2F)c1=O [Example 119, N-(2,6-Dimethoxyphenyl)-6-[4-ethyl-3-(hydroxymethyl)-5-oxo-1,2,4-triazol-1-yl]-5-fluoro-2-[(1S)-2,2,2-trifluoro-1-methyl-ethoxy]pyridine-3-carboxamide]
15 | 8.68 | 8.91 | CCn1c(CO)nn(-c2nc(O[C@@H](C)C(F)(F)F)c(C(=O)Nc3c[nH]nc3C(F)(F)F)cc2F)c1=O [Example 95, 6-[4-Ethyl-3-(hydroxymethyl)-5-oxo-1,2,4-triazol-1-yl]-5-fluoro-2-[(1S)-2,2,2-trifluoro-1-methyl-ethoxy]-N-[3-(trifluoromethyl)-1H-pyrazol-4-yl]pyridine-3-carboxamide]
16 | 8.55 | 8.19 | CCn1c(CO)nn(-c2nc(O[C@@H](C)C(F)(F)F)c(C(=O)Nc3cccnc3Cl)cc2F)c1=O [Example 4, (S)-N-(2-Chloropyridin-3-yl)-6-(4-ethyl-3-(hydroxymethyl)-5-oxo-4,5-dihydro-1H-1,2,4-triazol-1-yl)-5-fluoro-2-((1,1,1-trifluoropropan-2-yl)oxy)nicotinamide]
17 | 9.35 | 8.94 | CCn1c(CF)nn(-c2nc(O[C@@H](C)C(F)(F)F)c(C(=O)Nc3c(C)ccnc3Cl)cc2F)c1=O [Example 87, N-(2-Chloro-4-methyl-3-pyridyl)-6-[4-ethyl-3-(fluoromethyl)-5-oxo-1,2,4-triazol-1-yl]-5-fluoro-2-[(1S)-2,2,2-trifluoro-1-methyl-ethoxy]pyridine-3-carboxamide]
18 | 8.18 | 8.12 | CCn1c(CO)nn(-c2nc(O[C@@H](C)C(F)(F)F)c(C(=O)Nc3nccc(OC)c3Cl)cc2F)c1=O [Example 104, N-(3-Chloro-4-methoxy-2-pyridyl)-6-[4-ethyl-3-(hydroxymethyl)-5-oxo-1,2,4-triazol-1-yl]-5-fluoro-2-[(1S)-2,2,2-trifluoro-1-methyl-ethoxy]pyridine-3-carboxamide]
19 | 8.02 | 8.35 | CCn1c(C(C)(C)O)nn(-c2nc(O[C@@H](C)C(F)(F)F)c(C(=O)Nc3c(C)n[nH]c3C(F)(F)F)cc2F)c1=O [Example 128, 6-[4-Ethyl-3-(1-hydroxy-1-methyl-ethyl)-5-oxo-1,2,4-triazol-1-yl]-5-fluoro-N-[3-methyl-5-(trifluoromethyl)-1H-pyrazol-4-yl]-2-[(1S)-2,2,2-trifluoro-1-methyl-ethoxy]pyridine-3-carboxamide]
20 | 8.47 | 8.34 | CCOc1ccnc(NC(=O)c2cc(F)c(-n3nc(CO)n(CC)c3=O)nc2O[C@@H](C)C(F)(F)F)c1Cl [Example 105, N-(3-Chloro-4-ethoxy-2-pyridyl)-6-[4-ethyl-3-(hydroxymethyl)-5-oxo-1,2,4-triazol-1-yl]-5-fluoro-2-[(1S)-2,2,2-trifluoro-1-methyl-ethoxy]pyridine-3-carboxamide]
21 | 7.97 | 8.39 | Cc1ccnc(Cl)c1NC(=O)c1cc(F)c(-n2nc(CO)n(C(C)C)c2=O)nc1O[C@@H](C)C(F)(F)F [Example 89, N-(2-Chloro-4-methyl-3-pyridyl)-5-fluoro-6-[3-(hydroxymethyl)-4-isopropyl-5-oxo-1,2,4-triazol-1-yl]-2-[(1S)-2,2,2-trifluoro-1-methyl-ethoxy]pyridine-3-carboxamide]
22 | 8.33 | 8.11 | CCn1c(CO)nn(-c2nc(O[C@@H](C)C(F)(F)F)c(C(=O)Nc3cnccc3Cl)cc2F)c1=O [Example 27, (S)-N-(4-Chloropyridin-3-yl)-6-(4-ethyl-3-(hydroxymethyl)-5-oxo-4,5-dihydro-1H-1,2,4-triazol-1-yl)-5-fluoro-2-((1,1,1-trifluoropropan-2-yl)oxy)nicotinamide]
23 | 9.21 | 9.17 | CCn1c(CO)nn(-c2nc(O[C@@H](C)C(F)(F)F)c(C(=O)Nc3c(Cl)ccnc3Cl)cc2F)c1=O [Example 69, (S)-N-(2,4-Dichloropyridin-3-yl)-6-(4-ethyl-3-(hydroxymethyl)-5-oxo-4,5-dihydro-1H-1,2,4-triazol-1-yl)-5-fluoro-2-((1,1,1-trifluoropropan-2-yl)oxy)nicotinamide]
